Data as given in US20060116368A1, “4-Piperidinecarboxamide modulators of vanilloid VR1 receptor” (priority 2004, published 2006).

Target: T1, Human Vanilloid Receptor 1 (Homo sapiens, UniProt Q8NER1)
T1 construct: expressed in transfected cells; host or cells: HEK 293
Assay: Human VR1 functional assay using FLIPR, Protocol 2
Format: cell-based
Conditions: for h % I (1 uM): inhibition of capsaicin (EC80)-induced calcium response; for h % I (1 uM) / % E80 Capsaicin (1.2 uM): HEK 293 stably transfected hVR1; for IC50: decreased capsaicin (EC80)-induced calcium response, HEK 293 stably transfected hVR1, read-out: h IC50; for % E80 Capsaicin (1.2 uM): test compound-induced calcium response (agonist mode)
Method: The functional activity of the test compounds was determined by measuring changes in intracellular calcium concentration using FLIPR™ Calcium-3 Assay Kit and FLIPR™ technology.
HEK 293 cells stably transfected with Human Vanilloid Receptor 1 were maintained at 37° C. and 5% CO2 in: Dulbecco's Modification of Eagle's Medium (4.5 g/L glucose, L-glutamine, sodium pyruvate), 10% FBS, 1× Penicillin-Streptomycin, 400 ug/mL G418 Sulfate. Approximately 24 hours prior to assay, 5,000 cells/well were plated onto a 384-well black clear bottom poly-D-lysine-coated assay plate with a well volume of 25 μL using Titertek Multidrop.
On the day of the assay, the medium was dumped and 50 μL of dye (bulk kit vials diluted with 200 mL buffer) was loaded using Multidrop. Plates were incubated with dye at 37° C. for 30 minutes followed by 30 minutes incubation at room temperature. Then the plates were assayed by FLIPR™ with 2 additions: 12.5 μL test compound with 5 minutes data acquisition followed by 12.5 μL capsaicin at the EC80 concentration.
The EC50 values of test compounds were calculated based on a test compound-induced calcium response at the 5-minute time point. The IC50 values of compounds were calculated based on a decreased capsaicin-induced calcium response in the presence of test compound.

T1 sequence (Q8NER1 whole entry): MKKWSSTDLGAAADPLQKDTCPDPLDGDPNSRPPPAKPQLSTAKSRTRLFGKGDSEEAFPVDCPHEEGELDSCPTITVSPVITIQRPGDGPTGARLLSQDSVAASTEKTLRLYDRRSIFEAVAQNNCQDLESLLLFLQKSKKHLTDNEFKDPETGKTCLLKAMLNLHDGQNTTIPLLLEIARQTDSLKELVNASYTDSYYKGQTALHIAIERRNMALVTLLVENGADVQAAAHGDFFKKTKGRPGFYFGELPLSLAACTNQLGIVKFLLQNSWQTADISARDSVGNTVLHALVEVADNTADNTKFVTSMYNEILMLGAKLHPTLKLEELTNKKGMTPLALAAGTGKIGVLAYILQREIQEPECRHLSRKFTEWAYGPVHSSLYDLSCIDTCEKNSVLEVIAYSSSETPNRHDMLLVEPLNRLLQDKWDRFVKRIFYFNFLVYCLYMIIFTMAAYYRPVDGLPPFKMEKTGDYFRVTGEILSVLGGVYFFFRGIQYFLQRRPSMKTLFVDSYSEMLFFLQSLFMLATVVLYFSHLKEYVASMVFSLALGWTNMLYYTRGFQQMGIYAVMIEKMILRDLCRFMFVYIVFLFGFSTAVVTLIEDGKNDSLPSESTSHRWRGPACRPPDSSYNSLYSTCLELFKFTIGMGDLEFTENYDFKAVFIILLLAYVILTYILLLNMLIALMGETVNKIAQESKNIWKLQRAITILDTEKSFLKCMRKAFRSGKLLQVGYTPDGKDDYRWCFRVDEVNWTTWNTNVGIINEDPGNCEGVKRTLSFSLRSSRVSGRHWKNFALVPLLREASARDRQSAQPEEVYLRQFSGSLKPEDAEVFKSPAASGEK

Structure (SMILES)	h % I (1 uM)	IC50	% E80 Capsaicin (1.2 uM)
O=C1COc2cccc(NC(=O)C3CCN(c4cc(F)c(F)c(F)c4)CC3)c2N1 [Example 169, 1-(3,4,5-Trifluoro-phenyl)-piperidine-4-carboxylic acid (3-oxo-3,4-dihydro-2H-benzo[1,4]oxazin-5-yl)-amide]	9%	–	–
O=C1COc2cc(NC(=O)C3CCN(c4cc(F)c(F)c(F)c4)CC3)ccc2N1 [Example 170, 1-(3,4,5-Trifluoro-phenyl)-piperidine-4-carboxylic acid (3-oxo-3,4-dihydro-2H-benzo[1,4]oxazin-7-yl)-amide]	55%	735 nM	–
O=C1COc2c(cccc2NC(=O)C2CCN(c3cc(F)c(F)c(F)c3)CC2)N1 [Example 171, 1-(3,4,5-Trifluoro-phenyl)-piperidine-4-carboxylic acid (3-oxo-3,4-dihydro-2H-benzo[1,4]oxazin-8-yl)-amide]	–	–	17%
CN1C(=O)COc2ccc(NC(=O)C3CCN(c4cc(F)c(F)c(F)c4)CC3)cc21 [Example 172, 1-(3,4,5-Trifluoro-phenyl)-piperidine-4-carboxylic acid (4-methyl-3-oxo-3,4-dihydro-2H-benzo[1,4]oxazin-6-yl)-amide]	–	–	39%
O=C1CSc2ccc(NC(=O)C3CCN(c4cc(F)c(F)c(F)c4)CC3)cc2N1 [Example 173, 1-(3,4,5-Trifluoro-phenyl)-piperidine-4-carboxylic acid (3-oxo-3,4-dihydro-2H-benzo[1,4]thiazin-6-yl)-amide]	37%	1960 nM	–
O=C(Nc1ccc2c(c1)NC(=O)C(CCO)O2)C1CCN(c2cc(F)c(F)c(F)c2)CC1 (centres unmarked) [Example 174, 1-(3,4,5-Trifluoro-phenyl)-piperidine-4-carboxylic acid [2-(2-hydroxy-ethyl)-3-oxo-3,4-dihydro-2H-benzo[1,4]oxazin-6-yl]-amide]	99%	4.8 nM	–
CCOC(=O)C1(C)Oc2ccc(NC(=O)C3CCN(c4cc(F)c(F)c(F)c4)CC3)cc2NC1=O (centres unmarked) [Example 175, 2-Methyl-3-oxo-6-{[1-(3,4,5-trifluoro-phenyl)-piperidine-4-carbonyl]-amino}-3,4-dihydro-2H-benzo[1,4]oxazine-2-carboxylic acid ethyl ester]	54%	873 nM	–
CC1(C(=O)O)Oc2ccc(NC(=O)C3CCN(c4cc(F)c(F)c(F)c4)CC3)cc2NC1=O (centres unmarked) [Example 176, 2-Methyl-3-oxo-6-{[1-(3,4,5-trifluoro-phenyl)-piperidine-4-carbonyl]-amino}-3,4-dihydro-2H-benzo[1,4]oxazine-2-carboxylic acid]	–	–	116%
CCOC(=O)C1Oc2ccc(NC(=O)C3CCN(c4cc(F)c(F)c(F)c4)CC3)cc2NC1=O (centres unmarked) [Example 177, 3-Oxo-6-{[1-(3,4,5-trifluoro-phenyl)-piperidine-4-carbonyl]-amino}-3,4-dihydro-2H-benzo[1,4]oxazine-2-carboxylic acid ethyl ester]	–	–	13%
O=C(Nc1ccc2c(c1)NC(=O)C(C(=O)O)O2)C1CCN(c2cc(F)c(F)c(F)c2)CC1 (centres unmarked) [Example 178, 3-Oxo-6-{[1-(3,4,5-trifluoro-phenyl)-piperidine-4-carbonyl]-amino}-3,4-dihydro-2H-benzo[1,4]oxazine-2-carboxylic acid]	–	–	80%
COC(=O)CC1Oc2ccc(NC(=O)C3CCN(c4cc(F)c(F)c(F)c4)CC3)cc2NC1=O (centres unmarked) [Example 179, (3-Oxo-6-{[1-(3,4,5-trifluoro-phenyl)-piperidine-4-carbonyl]-amino}-3,4-dihydro-2H-benzo[1,4]oxazin-2-yl)-acetic acid methyl ester]	54%	890 nM	–
O=C(O)CC1Oc2ccc(NC(=O)C3CCN(c4cc(F)c(F)c(F)c4)CC3)cc2NC1=O (centres unmarked) [Example 180, (3-Oxo-6-{[1-(3,4,5-trifluoro-phenyl)-piperidine-4-carbonyl]-amino}-3,4-dihydro-2H-benzo[1,4]oxazin-2-yl)-acetic acid]	5%	–	–
